Test results taken from ChEMBL document CHEMBL1201862, “PubChem BioAssay data set” (2004).
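Test compounds were applied to cells in 96-well plates for 48 hours at 5 doses. GI50: concentration for 50% inhibition of growth.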 Calls of active or inactive are those of the source. Cut-off read from the data, not from the text of the source: active = GI50 up to about 1.1 µM and inactive = higher.

What was measured:
Assay in all cases: NCI anticancer screen, dose series, 48 h
786-0 = test system: 786-0
CCRF-CEM = test system: CCRF-CEM
COLO 205 = test system: COLO 205
HOP-92 = test system: HOP-92
K562 = test system: K562
KM12 = test system: KM12
LOX IMVI = test system: LOX IMVI
MCF7 = test system: MCF7
NCI-H460 = test system: NCI-H460
OVCAR-5 = test system: OVCAR-5
OVCAR-8 = test system: OVCAR-8
RXF 393 = test system: RXF 393
SF-268 = test system: SF-268
SF-539 = test system: SF-539
SK-MEL-2 = test system: SK-MEL-2
SK-OV-3 = test system: SK-OV-3
SNB-19 = test system: SNB-19
TK-10 = test system: TK-10
UACC-62 = test system: UACC-62
BT-549 = test system: BT-549

Measured: GI50

C=C(CN(C)C)C1(c2ccccc2)CC2(CCCC2)C(=O)O1 (stereo not given)
inactive: 786-0 66.5 µM | CCRF-CEM 20.6 µM | COLO 205 28.2 µM | HOP-92 17.9 µM | K562 30.2 µM | KM12 > 100 µM | LOX IMVI 53 µM | MCF7 74.1 µM | NCI-H460 > 100 µM | OVCAR-5 > 100 µM | OVCAR-8 > 100 µM | RXF 393 > 100 µM | SF-268 > 100 µM | SF-539 > 100 µM | SK-MEL-2 > 100 µM | SK-OV-3 > 100 µM | SNB-19 > 100 µM | TK-10 > 100 µM | UACC-62 > 100 µM

BrCC[N+]12CCCN1CCC2
inactive: 786-0 9.06 µM | BT-549 14.4 µM | CCRF-CEM 1.59 µM | COLO 205 4.14 µM | HOP-92 5.22 µM | K562 2.9 µM | KM12 > 67.3 µM | LOX IMVI 11.5 µM | NCI-H460 22.3 µM | OVCAR-5 21.5 µM | OVCAR-8 19 µM | RXF 393 14 µM | SF-268 24.9 µM | SF-539 15.2 µM | SK-MEL-2 20.5 µM | SK-OV-3 > 65.5 µM | SNB-19 > 43 µM | TK-10 14.5 µM | UACC-62 8.83 µM

Cc1ccc(/N=N/c2c(O)c(C(=O)Nc3ccccc3)cc3ccccc23)c([N+](=O)[O-])c1
inactive: 786-0 > 100 µM | BT-549 > 100 µM | CCRF-CEM > 100 µM | COLO 205 > 100 µM | HOP-92 > 100 µM | K562 > 100 µM | KM12 > 100 µM | LOX IMVI > 100 µM | OVCAR-5 > 100 µM | OVCAR-8 > 100 µM | RXF 393 > 100 µM | SF-268 > 100 µM | SK-MEL-2 > 100 µM | SK-OV-3 > 100 µM | SNB-19 > 100 µM | TK-10 > 100 µM | UACC-62 > 100 µM

Cc1cc2nc3c(C#N)c4c(c(Cl)n3c2cc1C)CCC4
inactive: 786-0 16 µM | BT-549 22.5 µM | COLO 205 65.8 µM | HOP-92 31.8 µM | KM12 38.5 µM | LOX IMVI 18.1 µM | NCI-H460 37.6 µM | OVCAR-5 25.1 µM | OVCAR-8 20.2 µM | RXF 393 16.6 µM | SF-268 23.9 µM | SF-539 25.3 µM | SK-OV-3 > 100 µM | TK-10 24.7 µM

OC(c1ccoc1)c1cc2ccccc2s1 (stereo not given)
inactive: 786-0 > 10 µM | CCRF-CEM > 10 µM | COLO 205 > 10 µM | HOP-92 > 10 µM | K562 > 10 µM | KM12 > 10 µM | LOX IMVI > 10 µM | MCF7 > 10 µM | NCI-H460 > 10 µM | OVCAR-5 > 10 µM | OVCAR-8 > 10 µM | RXF 393 > 10 µM | SF-268 > 10 µM | SF-539 > 10 µM | SK-MEL-2 > 10 µM | SK-OV-3 > 10 µM | SNB-19 > 10 µM | TK-10 > 10 µM | UACC-62 > 10 µM

CCCCCCC1CC(=O)C1(Cl)Cl (stereo not given)
inactive: 786-0 15 µM | BT-549 21.4 µM | CCRF-CEM 2.4 µM | K562 14.7 µM | KM12 22.4 µM | LOX IMVI 14.8 µM | MCF7 26.4 µM | NCI-H460 > 10 µM | OVCAR-5 > 100 µM | OVCAR-8 23.2 µM | SF-268 20.7 µM | SF-539 31.3 µM | SK-MEL-2 30.9 µM | SK-OV-3 > 100 µM | SNB-19 63.7 µM | TK-10 > 100 µM | UACC-62 20.3 µM
